Reference: patent publication US10358531B2, “Crosslinked polymer nano-assemblies and uses thereof” (University of Massachusetts, priority 2011, dated 2019)

What was measured:
MCF-7 cells = test: Cell uptake of free Dox and Dox-loaded nanogels by confocal microscopy; type: cell-based; conditions: 20 μM Dox concentration, 3-4 h
Procedure: For further study, the cell uptake of both free Dox and Dox-loaded nanogels (20 μM Dox concentration) was monitored using confocal microscopy over time. Initial internalization of Dox was observed within 3 h for free Dox and NG3-Dox, but not until 4 h for NG1-Dox (FIG. 9c-g). […] This is presumably the reason that the two nanogels show similar toxicities.
Laser Scanning Confocal Microscopy: The laser confocal experiment was performed with MCF-7 cells. MCF-7 cells were cultured in T75 cell culture flask containing DMEM/F12 with 10% FBS supplement. The cells were seeded at 10,000 cells/100 μL in cover slip-bottomed Petri dishes and allowed to grow for 3 days at 37° C. in a 5% CO2 incubator. The cells in 2 mL of culture medium were treated with 200 μL of nanogels containing two dyes or doxorubicin and incubated at 37° C. for different time intervals before monitoring the cells by confocal microscopy.

MCF7 cells = test: Toxicity of PTX-loaded carriers, Alamar Blue assay; type: cell-based; conditions: MCF7, 72 h, 10 μM PTX
Procedure: (§1) Selective delivery of chemotherapeutic drug. To test whether the observed target selectivity would translate into differential cell kill efficiency, the ligand-coated nanogels encapsulating a chemotherapeutic drug molecule, paclitaxel (PTX) were prepared. The PTX-loaded polymeric aggregates (polymer-PTX), NG (NG-PTX) and NG-RGD (NG-RGD-PTX) were added to MCF7 cells and HeLa cells and the extent of cell death was investigated after 72 h. […] This supports the hypothesis that the polymeric micellar aggregates have a leaky nature, which leads to free drug being translocated through the cellular membrane. […] This is consistent with the observed slow internalization of nanogels, which should result in a reduced amount of chemotherapeutic inside the cells.
(§2) Cell culture: The cell viabilities of the nanogels were tested with 293T cells. 293T cells were cultured in T75 cell culture flasks using Dulbecco's Modified Eagle Medium/Nutrient Mixture F-12 (DMEM/F12) with 10% fetal bovine serum (FBS) supplement. […] Cell viability was measured using the Alamar Blue assay with each data point measured in triplicate. Fluorescence measurements were made using the plate reader SpectraMax M5 by setting the excitation wavelength at 560 nm and monitoring emission at 590 nm on a black well plate. […] Cell death was measured by the Alamar Blue assay in triplicate.

HeLa cells [1] = test: Toxicity of PTX-loaded carriers, Alamar Blue assay; type: cell-based; conditions: 72 h, 10 μM PTX
Procedure: as §1, §2

HeLa cells [2] = test: Intracellular delivery of DiI and FITC-β-gal by confocal microscopy; type: cell-based; conditions: without nanogel
Procedure: Intracellular delivery of DiI and β-gal was also tested. As the nanogels consist of biodegradable disulfide crosslinkers, the release of the complexed protein and encapsulated lipophilic molecule can be triggered upon exposure to glutathione (present at higher concentrations inside the cells (mM), compared to the extracellular concentration […]). To compare the release profile of these dual delivery systems, NG1-CRRR and NG2-CRRR containing DiI in its interior and complexed with FITC labeled β-gal, were added to HeLa cells with serum and without serum. In the case of cell internalization of both encapsulated DiI and FITC labeled protein, a yellow color would be observed due to the co-localization and overlay of both red and green fluorophores for DiI and FITC, respectively. If there is no internalization of the nanogel, no color could be observed.
Fluorescence distribution of DiI and FITC was observed over time by confocal fluorescence microscopy with simultaneous excitation of both dye molecules at 488 nm and 543 nm for FITC and DiI, respectively. As shown in FIGS. 33a and 33b, green and red emissions were observed when the cells were treated with the nanogel-protein complexes. […] The green fluorescence of the FITC (label for protein) and red fluorescence for DiI (encapsulated small molecule) appear uniformly distributed. […]

[3] = DLS size of NG-CRRR nanogels, β-gal and complexes; estimated numbers per complex; type: physicochemical
Excerpt: Also evaluated were the size change and charge alteration of the nanogel surface due to the complexation event using DLS and zeta potential measurements respectively.

Compound: COc1cccc2c1C(=O)c1c(O)c3c(c(O)c1C2=O)C[C@@](O)(C(=O)CO)C[C@@H]3O[C@H]1C[C@H](N)[C@H](O)[C@H](C)O1 [free Dox, doxorubicin]
- intracellular localization of Dox (MCF-7 cells): significant accumulation in the nucleus

Compound: CC(=O)O[C@H]1C(=O)[C@@]2(C)[C@H]([C@H](OC(=O)c3ccccc3)[C@]3(O)C[C@H](OC(=O)[C@H](O)[C@@H](NC(=O)c4ccccc4)c4ccccc4)C(C)=C1C3(C)C)[C@]1(OC(C)=O)CO[C@@H]1C[C@@H]2O [free PTX, paclitaxel]
- toxicity (cell death) (MCF7 cells): highly toxic
- toxicity (cell death) (HeLa cells [1]): highly toxic

Compound: FITC-β-gal: β-gal functionalized with fluorescein
- intracellular delivery of protein alone (HeLa cells [2]): no fluorescence

Compound: β-gal: β-galactosidase (pI: 4.8, from E. coli), the model protein
- intracellular delivery of protein alone (HeLa cells [2]): not efficient
- hydrodynamic diameter [3]: ~10 nm
